# Source: paper PMC8541992, “Safety, pharmacokinetics, and preliminary efficacy of the PARP inhibitor talazoparib in Japanese patients with advanced solid tumors: phase 1 study” (Investigational New Drugs, 2021)
# Like-named read-outs stand apart in the source and are kept apart here.
# Columns and labels:
# [1] = system: PARP on DNA; design: method as in PMID 24356813; conditions: compared with other PARP inhibitors under investigation or approved in Japan; cited from earlier work
# [2] = system: locally advanced or metastatic solid tumors; test: Phase 1 study: antitumor activity, investigator assessment (RECIST v.1.1); assay type: in vivo, human (Japanese patients)
# Method: Antitumor activity was evaluated using radiological tumor assessments of all known or suspected disease sites. Imaging could include chest, abdomen, and pelvis computed tomography (CT) or magnetic resonance imaging (MRI) scans. Brain scans and bone scans were performed at baseline if disease was suspected and during the study as appropriate. CT or MRI scans were conducted at baseline (screening visit), on Day 1 (±7 days) of Cycle 2, and every other cycle thereafter, whenever disease progression was suspected, and at the time of withdrawal from treatment (if not performed within 6 weeks). Tumor response (unconfirmed) was assessed using Response Evaluation Criteria in Solid Tumors (RECIST) v.1.1, and included best overall response (complete response [CR], partial response [PR], stable disease [SD], progressive disease [PD], and non-CR/non-PD), objective response, defined as the sum of CR and PR, and overall disease control rate, defined as the sum of CR, PR, SD, and non-CR/non-PD.
# [3] = system: HER2-negative advanced breast cancer with a germline BRCA1/2 mutation; design: method as in PMID 30110579, PMID 30124753; conditions: 1 mg QD versus chemotherapy; 95% CI 0.41 to 0.71, P < 0.001; cited from earlier work
# [4] = system: Japanese patients with locally advanced or metastatic solid tumors; test: Phase 1 dose-escalation study: safety (DLTs, TEAEs)
# Text: This is an ongoing open-label, non-randomized, phase 1 study of the PARP inhibitor, talazoparib, in Japanese patients with locally advanced or metastatic solid tumors regardless of mutations in DDR-related genes who are resistant to standard therapies or for whom no standard therapy is available (ClinicalTrials.gov NCT03343054). The study comprises a dose-escalation phase and a dose-expansion phase conducted in 8 Japanese centers (Supplementary Fig. 1). The objective of the initial dose-escalation phase was to investigate the safety, PK (single-dose and steady-state), and preliminary antitumor activity of single-agent talazoparib in sequential cohorts of patients with advanced solid malignancies. A modified 3 + 3 dose-escalation scheme was used to determine the recommended phase 2 dose in Japanese patients; up to 3 patients could be enrolled simultaneously in a cohort although sometimes due to logistical or clinical reasons more than 3 but no more than 9 patients were enrolled at each dose level. Successive cohorts of patients received escalating doses of talazoparib on an outpatient basis starting from 0.75 mg/day. To understand the single-dose safety and single-dose PK assessments of talazoparib, a lead-in period preceding the continuous daily doses was included. Data for the dose-escalation phase are reported here (data cut-off January 2020).
# Eligible patients were assigned to one of two talazoparib treatment groups (dose levels). Successive cohorts of patients received talazoparib dosed orally at 0.75 mg QD (3 capsules of 0.25 mg) or 1 mg QD (4 capsules of 0.25 mg), with or without food, on an outpatient basis according to a modified 3 + 3 dose-escalation scheme. On Day −7 (lead-in visit), patients received a single dose of talazoparib, followed by continuous daily dosing from Day 1 of each 28-day cycle. Patients continued to receive talazoparib until either disease progression, patient refusal of study treatment, or unacceptable toxicity. Dose modifications were allowed depending on the type and severity of the toxicity encountered. To continue talazoparib, patients were required to have adequate bone marrow functions (hemoglobin ≥8.0 g/dL, absolute neutrophil count ≥1000/mm^3, platelets ≥50,000/mm^3). If grade 1 or grade 2 treatment-related toxicity occurred (other than renal impairment), dose interruption or dose reduction were not required. Daily dosing was paused for grade ≥3 adverse events (AEs) considered related to talazoparib. Supportive care including blood products for hematologic toxicities was allowed as appropriate per local guidance. Talazoparib dosing could resume at the next lower dose level (e.g., from 1.0 mg/day to 0.75 mg/day; 0.75 mg/day to 0.5 mg/day; 0.5 mg/day to 0.25 mg/day) when toxicity resolved to grade 1 or returned to baseline. […]
# [5] = system: non-Japanese patients with advanced breast cancer; design: method as in PMID 32162822; conditions: EMBRACA study; cited from earlier work
# [6] = Phase 1 study: single- and multiple-dose plasma pharmacokinetics; assay type: in vivo, human (Japanese patients); conditions: for Rac (ratio of AUCtau after multiple doses/AUCtau after single dose) / Rss (ratio of AUCtau after multiple doses/AUCinf after single dose) / Tmax: median (range); for Cmax / AUC / AUC(0-inf) / Cmin: geometric mean (geometric %CV); for half-life: read-out: t1/2 (terminal half-life) (converted); for AUC: AUCtau = AUC24
# Method: PK parameters following single- and multiple-dose administration of single-agent talazoparib, included talazoparib area under the plasma concentration-time curve from 0 h to infinity (AUCinf; single dose) and during the dosing interval ([NT], multiple dosing); maximum observed plasma concentration (Cmax); lowest plasma concentration observed during the dosing interval (Cmin); elimination half-life (t1/2); time to Cmax (Tmax); ratio of [NT] after multiple doses/[NT] after single dose (Rac); and ratio of [NT] after multiple doses/AUCinf after single dose (Rss). PK parameters were calculated for each patient using non-compartmental analysis of plasma concentration-time data. Blood samples were collected pre-dose on Day -7, and on Days 1, 15, and 22 of Cycle 1, and Day 1 of Cycles 3 and 4. Post-dose blood samples were also collected at 0.5, 0.75, 1, 2, 3, 4, 6, 8, 10, and 24 h (Day -7 and Day 22 of Cycle 1 only) and at 48, 72, and 96 h (Day -7 only). […] PK parameters and safety data were summarized descriptively.
# [7] = system: PARP; design: method as in PMID 24356813, PMID 31296812; conditions: PARP inhibition; read-out: Half-maximal inhibitory concentration; cited from earlier work
# [8] = 0.75 mg QD oral, N = 3, listed as talazoparib
# [9] = 1 mg QD oral, N = 6, listed as talazoparib
# [10] = plasma, multiple dose 0.75 mg QD oral, N = 3
structure (smiles),measurement,setting,value
"Cn1ncnc1[C@H]1c2n[nH]c(=O)c3cc(F)cc(c23)N[C@@H]1c1ccc(F)cc1 [Talazoparib, talazoparib]",PARP-trapping potential relative to other PARP inhibitors,[1],approximately 100 times greater
same,Best overall response (unconfirmed): CR,"[2]; 0.75 mg QD oral, N = 3",0 n (%)
same,Best overall response (unconfirmed): Non-CR/non-PD,"[2]; 0.75 mg QD oral, N = 3",1 (33.3) n (%)
same,Best overall response (unconfirmed): PD,"[2]; 0.75 mg QD oral, N = 3",2 (66.7) n (%)
same,Best overall response (unconfirmed): PR,"[2]; 0.75 mg QD oral, N = 3",0 n (%)
same,Best overall response (unconfirmed): SD,"[2]; 0.75 mg QD oral, N = 3",0 n (%)
same,Disease control (CR + PR + SD + non-CR/non-PD),"[2]; 0.75 mg QD oral, N = 3",1 (33.3) n (%)
same,Objective response (CR + PR),"[2]; 0.75 mg QD oral, N = 3",0 n (%)
same,Best overall response (unconfirmed): CR,"[2]; 1 mg QD oral, N = 6",0 n (%)
same,Best overall response (unconfirmed): Non-CR/non-PD,"[2]; 1 mg QD oral, N = 6",1 (16.7) n (%)
same,Best overall response (unconfirmed): PD,"[2]; 1 mg QD oral, N = 6",3 (50.0) n (%)
same,Best overall response (unconfirmed): PR,"[2]; 1 mg QD oral, N = 6",0 n (%)
same,Best overall response (unconfirmed): SD,"[2]; 1 mg QD oral, N = 6",2 (33.3) n (%)
same,Disease control (CR + PR + SD + non-CR/non-PD),"[2]; 1 mg QD oral, N = 6",3 (50.0) n (%)
same,Objective response (CR + PR),"[2]; 1 mg QD oral, N = 6",0 n (%)
same,Overall disease control rate (CR + PR + SD + non-CR/non-PD),"[2]; all 9 patients, 0.75 and 1 mg QD, unconfirmed responses",44.4%
same,Best overall response (unconfirmed): CR,"[2]; total, 0.75 and 1 mg QD, N = 9",0 n (%)
same,Best overall response (unconfirmed): Non-CR/non-PD,"[2]; total, 0.75 and 1 mg QD, N = 9",2 (22.2) n (%)
same,Best overall response (unconfirmed): PD,"[2]; total, 0.75 and 1 mg QD, N = 9",5 (55.6) n (%)
same,Best overall response (unconfirmed): PR,"[2]; total, 0.75 and 1 mg QD, N = 9",0 n (%)
same,Best overall response (unconfirmed): SD,"[2]; total, 0.75 and 1 mg QD, N = 9",2 (22.2) n (%)
same,Disease control (CR + PR + SD + non-CR/non-PD),"[2]; total, 0.75 and 1 mg QD, N = 9",4 (44.4) n (%)
same,Objective response (CR + PR),"[2]; total, 0.75 and 1 mg QD, N = 9",0 n (%)
same,TEAE leading to death,"[4]; 0.75 mg QD oral, N = 3",0 n (%)
same,TEAE leading to death,"[4]; 1 mg QD oral, N = 6",0 n (%)
same,Dose reduction due to TEAE,"[4]; human, in vivo",1 (11.1) n (%)
same,TEAE leading to death,"[4]; total, 0.75 and 1 mg QD, N = 9",0 n (%)
same,Patients discontinued due to anemia,[5],0.7%
same,Patients discontinued due to hematologic toxicities,[5],1.4%
same,Dose proportionality of drug exposure (Cmax and AUC),[6]; 1 mg dose level compared with 0.75 mg dose level,slightly higher than dose-proportional
same,Cmax,"[6]; human, plasma, po, 0.75 mg, multiple dose 0.75 mg QD oral, N = 3",0.0144 µg/mL
same,half-life,"[6]; human, plasma, po, 0.75 mg, plasma, single dose 0.75 mg oral, N = 3, mean (standard deviation)",56.6 h
same,Tmax,"[6]; human, plasma, po, 0.75 mg, plasma, single dose 0.75 mg oral, N = 3, read-out: Tmax",0.98 h
same,Cmax,"[6]; human, plasma, po, 0.75 mg, single dose 0.75 mg oral, N = 3",0.00724 µg/mL
same,Cmax,"[6]; human, plasma, po, 1 mg, multiple dose 1 mg QD oral, N = 6",0.0328 µg/mL
same,Tmax,"[6]; human, plasma, po, 1 mg, plasma, multiple dose 1 mg QD oral, N = 6, read-out: Tmax",1.03 h
same,half-life,"[6]; human, plasma, po, 1 mg, plasma, single dose 1 mg oral, N = 6, mean (standard deviation)",50.7 h
same,Tmax,"[6]; human, plasma, po, 1 mg, plasma, single dose 1 mg oral, N = 6, read-out: Tmax",0.97 h
same,Cmax,"[6]; human, plasma, po, 1 mg, single dose 1 mg oral, N = 6",0.0138 µg/mL
same,AUC,"[6]; human, plasma, multiple dose 0.75 mg QD oral, N = 3",0.127 µg·h/mL
same,AUC,"[6]; human, plasma, multiple dose 1 mg QD oral, N = 6",0.245 µg·h/mL
same,AUC(0-inf),"[6]; human, plasma, single dose 0.75 mg oral, N = 3",0.107 µg·h/mL
same,AUC(0-inf),"[6]; human, plasma, single dose 1 mg oral, N = 6",0.2 µg·h/mL
same,Cmin,[6]; [10],2.18 (8) ng/mL
same,Tmax,[6]; [10],1.02 (1.0–1.9) h
same,Cmin,"[6]; plasma, multiple dose 1 mg QD oral, N = 6",3.65 (49) ng/mL
same,t1/2 (terminal half-life),"[6]; plasma, single dose 1 mg oral, N = 6, mean (standard deviation)",50.73 (10.1) h
same,Time to peak of mean plasma concentrations,[6]; single or multiple dosing at 0.75 mg QD or 1 mg QD,around 1 h
